Results as given in patent US20040127549A1, “Cyclic 2-carbonylaminoketones as inhibitors of cruzipain and other cysteine proteases” (priority 2001, published 2004).

Experiments:
Bovine Cathepsin S = target: T1, Bovine Cathepsin S (Bos taurus, UniProt P25326); test: Cathepsin peptidase activity assay (Ki), bovine cathepsin S; format: biochemical; conditions: pH 6.5, 25±1° C.
T1 construct: purchased CN Biosciences
Protocol: (§1) Assay protocols were based on literature precedent (Tablel; Barrett, A. J., Rawlings, N. D. and Woessner, J. F., 1998, Handbook of Proteolytic Enzymes, Academic Press, London and references therein) and modified as required to suit local assay protocols. Enzyme was added as required to initiate the reaction and the activity, as judged by the change in fluorescence upon conversion of substrate to product, was monitored over time. All assays were carried out at 25±1° C.
(§2) Bovine cathepsin S, human cathepsin L, human cathepsin H and human cathepsin B were obtained from CN Biosciences. Recombinant human cathepsin S, human cathepsin K and human cathepsin X were obtained from Dr. Boris Turk (Josef Stefan Institute, Ljubljana, Slovenia). Unless otherwise stated, all peptidase activity assays were carried out in 10 mM bis-tris-propane (BTP), pH 6.5 containing 1 mM EDTA, 5 mM 2-mercaptoethanol and 1 mM CaCl2. Human cathepsin H activity assays were carried out in 10 mM BTP pH 6.5, 142 MM NaCl2 1 mM CaCl2, 1 mM EDTA, 1 mM DTr, 0.035 mM Zwittergent 3-16. […] The rate of conversion of substrate to product was derived from the slope of the increase in fluorescence monitored continuously over time.
(§3) The apparent inhibition constant (Ki) for each compound was determined on the basis that inhibition was reversible and occurred by a pure-competitive mechanism. The Ki values were calculated, from the dependence of enzyme activity as a function of inhibitor concentration, by direct regression analysis (Prism v 3.02) using Equation 2 (Cornish-Bowden, A., 1995.). […]
(§4) In situations where the apparent dissociation constant (Ki^app) approached the enzyme concentrations, the Ki^app values were calculated using a quadratic solution in the form described by Equation 3 (Morrison, J. F. Trends Biochem. Sci., 7, 102-105, 1982; Morrison, J. F. Biochim. Biophys. Acta, 185, 269-286, 1969; Stone, S.R. and Hofsteenge, J. Biochemistry, 25, 4622-4628, 1986). […]

Cruzipain = target: T2, Cruzipain (Trypanosoma cruzi, UniProt P25779); test: Trypanosoma cruzi cruzipain peptidase activity assay (Ki); format: biochemical; conditions: wild-type cruzipain, pH 6.75, 25±1° C.
T2 construct: Wild-type cruzipain, derived from Trypanosoma cruzi Dm28 epimastigotes, was obtained from Dr. Julio Scharfstein; tissue Dr. Julio Scharfstein (Instituto de Biofisica Carlos Chagas Filho, Universidade Federal do Rio de Janeiro); host or cells: Trypanosoma cruzi Dm28 epimastigotes
T2 sequence (P25779 123-467): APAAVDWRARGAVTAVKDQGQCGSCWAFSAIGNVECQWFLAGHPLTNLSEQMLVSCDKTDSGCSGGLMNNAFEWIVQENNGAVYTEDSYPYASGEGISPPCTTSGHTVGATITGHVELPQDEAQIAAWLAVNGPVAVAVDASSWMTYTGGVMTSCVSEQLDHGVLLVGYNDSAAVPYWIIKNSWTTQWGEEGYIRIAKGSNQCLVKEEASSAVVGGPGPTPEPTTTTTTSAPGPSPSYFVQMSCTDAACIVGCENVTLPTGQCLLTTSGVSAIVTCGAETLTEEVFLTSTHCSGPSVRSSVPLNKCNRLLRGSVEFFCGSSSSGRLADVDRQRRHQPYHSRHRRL
Protocol: as §1
Wild-type cruzipain, derived from Trypanosoma cruzi Dm28 epimastigotes, was obtained from Dr. Julio Scharfstein (Instituto de Biofisica Carlos Chagas Filho, Universidade Federal do R10 de Janeiro, R10 de Janeiro, Brazil). Activity assays were carried out in 100 mM sodium phosphate, pH 6.75 containing 1 mM EDTA and 10 mM L-cysteine using 2.5 nM enzyme. Ac-Phe-Arg-AMC (KM^app≈12 1M) and D-Val-Leu-Lys-AMC (KM^app≈4 1M) were used as the substrates. Routinely, Ac-FR-AMC was used at a concentration equivalent to KM^app and D-Val-Leu-Lys-AMC was used at a concentration of 25 μM. The rate of conversion of substrate to product was derived from the slope of the increase in fluorescence monitored continuously over time.
as §3, with “1995.). [formula]” for “1995.).”
as §4

Human Cathepsin K = target: T3, Human Cathepsin K (Homo sapiens, UniProt P43235); test: Cathepsin peptidase activity assay (Ki), human cathepsin K; format: biochemical; conditions: pH 5.5, 25±1° C.
T3 construct: purchased Dr. Boris Turk (Josef Stefan Institute, Ljubljana, Slovenia)
T3 sequence (P43235 115-329): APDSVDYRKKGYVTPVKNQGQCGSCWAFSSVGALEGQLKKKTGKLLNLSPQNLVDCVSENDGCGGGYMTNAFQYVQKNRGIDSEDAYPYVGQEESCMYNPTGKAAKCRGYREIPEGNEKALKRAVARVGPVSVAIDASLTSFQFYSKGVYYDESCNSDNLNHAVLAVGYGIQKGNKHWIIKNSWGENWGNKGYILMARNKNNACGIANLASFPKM
Protocol: as §1, §2, §3, §4

Human Cathepsin L = target: T4, Human Cathepsin L (Homo sapiens, UniProt P07711); test: Cathepsin peptidase activity assay (Ki), human cathepsin L; format: biochemical; conditions: pH 6.5, 25±1° C.
T4 construct: purchased CN Biosciences
T4 sequence (P07711 114-333): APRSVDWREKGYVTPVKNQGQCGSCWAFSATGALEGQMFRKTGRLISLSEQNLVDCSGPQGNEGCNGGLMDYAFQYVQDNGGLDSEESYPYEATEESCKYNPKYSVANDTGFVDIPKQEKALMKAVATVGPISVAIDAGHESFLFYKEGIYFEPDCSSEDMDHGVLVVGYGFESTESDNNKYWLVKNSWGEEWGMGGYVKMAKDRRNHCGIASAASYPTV
Protocol: as §1, §2, §3, §4

[1] = test system: Trypanosoma cruzi-infected mammalian cell cultures; conditions: addition to infected mammalian cell cultures; cited from earlier work
[2] = test system: Trypanosoma cruzi infection; conditions: acute phase of infection; cited from earlier work

T1 sequence (P25326 115-331): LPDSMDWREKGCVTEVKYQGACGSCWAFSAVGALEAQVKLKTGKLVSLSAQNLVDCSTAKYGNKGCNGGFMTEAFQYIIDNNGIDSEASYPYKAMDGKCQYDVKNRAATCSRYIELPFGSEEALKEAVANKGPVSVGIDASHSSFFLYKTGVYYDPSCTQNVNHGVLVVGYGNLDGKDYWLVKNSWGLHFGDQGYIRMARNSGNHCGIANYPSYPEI

| SMILES | Ki (Bovine Cathepsin S) [µM] | Ki (Cruzipain) [µM] | Ki (Human Cathepsin K) [µM] | Ki (Human Cathepsin L) [µM] | effect on parasite replication and differentiation [1] | cure [2] [%] |
| --- | --- | --- | --- | --- | --- | --- |
| C[C@H]1OCC(=O)[C@]1(C)NC(=O)[C@H](Cc1ccc(O)cc1)NC(=O)c1csc(-c2cccnc2)n1 [Example 6, (2R, 3R) 2-Pyridin-3-yl-thiazole4-carboxylic acid [1-(2,3-dimethyl-4oxo-tetrahydrofuran-3-ylcarbamoyl)-2-(4-hydroxyphenyl)-ethyl]-amide] | > 50 | < 2 | > 100 | > 50 |  |  |
| C[C@H]1OCC(=O)[C@]1(C)NC(=O)[C@H](CC1CCCCC1)NC(=O)c1ccoc1 [Example 19, (2R, 3R) Furan-3-carboxylic acid [2-cyclohexyl-1-(2,3-dimethyl-oxo-tetrahydrofuran-3-ylcaxbamoyl)-ethyl]-amide] | < 2 | > 50 | > 50 | > 50 |  |  |
| C[C@H]1OCC(=O)[C@]1(C)NC(=O)[C@H](Cc1ccc(O)cc1)NC(=O)c1cccc2ccccc12 [Example 27, (2R, 3R) Naphthalene-1-carboxylic acid [1-(2,3-dimethyl-4-oxo-tetrahydrofuran-3-ylcarbamoyl)-2-(4-hydroxyphenyl)-ethyl]-amide] | > 50 | > 20 | > 100 | < 5 |  |  |
| CC(NC(=O)C(Cc1ccccc1)NC(=O)OCc1ccccc1)C(=O)CF (stereo not drawn) [Z-Phe-Ala-FMK] |  |  |  |  | blocked replication and differentiation of the parasite |  |
| O=C(Cn1ccnc1[N+](=O)[O-])NCc1ccccc1 [benznidazole] |  |  |  |  |  | 60 |
